Literature values, collected in patent US20050266042A1, “Methods and apparatus for treatment of aneurysmal tissue” (Medtronic Vascular, Inc., priority 2004, published 2005).

Conditions: for route of elimination / clearance: in vivo

Compound | route of elimination / clearance | other results
C[C@H](CS)C(=O)N1CCC[C@H]1C(=O)O [captopril] | – | bioavailability (given orally): about 75%
CCC(=O)O[C@@H](O[P@](=O)(CCCCc1ccccc1)CC(=O)N1C[C@H](C2CCCCC2)C[C@H]1C(=O)O)C(C)C [fosinopril] | balanced elimination by the liver and kidneys | –
NCCCC[C@H](N[C@@H](CCc1ccccc1)C(=O)O)C(=O)N1CCC[C@H]1C(=O)O [lisinopril] | – | time to peak concentrations in the plasma (oral administration): about 7 hours
CCOC(=O)[C@H](CCc1ccccc1)N[C@@H](C)C(=O)N1CC2(C[C@H]1C(=O)O)SCCS2 [spirapril] | balanced elimination by the liver and kidneys | –
